Results published in ChEMBL document CHEMBL1795238, “Structure-brain exposure relationships in rat and human using a novel data set of unbound drug concentrations in brain interstitial and cerebrospinal fluids” (J Med Chem, 2009).

Columns and labels:
Brain = conditions: rat, in vivo, iv, 4 h
in vivo [1] = conditions: Sprague-Dawley, rat, iv, 2 (umol/kg)/hr
in vivo [2] = conditions: Sprague-Dawley, rat, iv, 2 (umol/kg)/hr; remark: listed apart in the source
in vitro = conditions: Sprague-Dawley, rat, plasma, iv, 2 (umol/kg)/hr
Plasma [3] = conditions: rat, iv, 4 h
clinical = conditions: human, CSF and plasma
in vivo [4] = conditions: Sprague-Dawley, rat, iv, 2 (umol/kg)/hr; remark: listed apart in the source
[5] = rat, brain, iv, 4 h
Plasma [6] = conditions: rat, iv, 4 h; remark: listed apart in the source

Row | Structure (SMILES) | Vdu (Brain) | Kp at 4 h (in vivo [1]; brain) | Kp uu at 4 h (in vivo [2]; brain) | fraction unbound at 4 h (in vitro) | Cp(f) (Plasma [3]) | Kp uu (clinical) | Kp uu at 4 h (in vivo [4]; CSF and plasma) | BPR [5] | Kp uu at 4 h (in vivo [2]; brain and plasma) | Kp uu at 4 h (in vivo [4]; csf) | Kp at 4 h (in vivo [1]; brain and plasma) | BPR ([5]; Sprague-Dawley, 2 (umol/kg)/hr) | Fu (Plasma [6])
1 | CC(C)(C)NC(=O)[C@@H]1C[C@@H]2CCCC[C@@H]2CN1C[C@@H](O)[C@H](Cc1ccccc1)NC(=O)[C@H](CC(N)=O)NC(=O)c1ccc2ccccc2n1 | 208 mL | 0.08 | 0.055 | 0.007 | 3 nM | 0.096 |  |  |  |  |  |  | 
2 | Cc1c(O)cccc1C(=O)N[C@@H](CSc1ccccc1)[C@H](O)CN1C[C@H]2CCCC[C@H]2C[C@H]1C(=O)NC(C)(C)C | 860 mL |  |  |  | 1.9 nM | 0.045 | 0.067 | 0.04 | 0.019 |  |  |  | 
3 | COc1ccc(CCN(C)CCCC(C#N)(c2ccc(OC)c(OC)c2)C(C)C)cc1OC (stereo not given) |  |  |  |  | 75 nM |  |  |  |  |  |  |  | 
4 | C=CCc1ccccc1OCC(O)CNC(C)C (stereo not given) [ALPRENOLOL] | 50 mL | 8.27 | 0.38 | 0.44 | 280 nM |  |  |  |  | 0.33 |  |  | 
5 | CN(C)CCC=C1c2ccccc2CCc2ccccc21 [AMITRIPTYLINE] | 310 mL |  |  | 0.09 | 22 nM | 0.18 | 0.17 |  | 0.73 |  | 20.1 |  | 
6 | NCC(CC(=O)O)c1ccc(Cl)cc1 (stereo not given) [BACLOFEN] | 1.7 mL |  |  | 1 | 4200 nM | 0.17 | 0.027 |  | 0.02 |  | 0.03 |  | 
7 | CC(NC(C)(C)C)C(=O)c1cccc(Cl)c1 (stereo not given) [BUPROPION] | 16 mL |  |  | 0.31 | 79 nM | 2 | 0.49 |  | 2 |  | 9.78 |  | 
8 | COc1ccc2c3c1O[C@H]1[C@@H](O)C=C[C@H]4[C@@H](C2)N(C)CC[C@@]341 [CODEINE] | 3.2 mL | 2.7 | 0.89 | 0.95 | 210 nM | 0.79 |  |  |  | 0.54 |  |  | 
9 | CC(C)Nc1cccnc1N1CCN(C(=O)c2cc3cc(NS(C)(=O)=O)ccc3[nH]2)CC1 [DELAVIRDINE] | 40 mL | 0.03 | 0.043 | 0.016 | 17 nM | 0.23 |  |  |  | 0.051 |  |  | 
10 | NCC1(CC(=O)O)CCCCC1 [GABAPENTIN] | 4.6 mL |  |  | 1 | 5200 nM | 0.16 | 0.067 |  | 0.14 |  | 0.64 |  | 
11 | COc1ccc2c(c1)c(CC(=O)O)c(C)n2C(=O)c1ccc(Cl)cc1 [INDOMETHACIN] | 14 mL | 0.01 | 0.11 | 0.01 | 200 nM | 0.27 |  |  |  | 0.17 |  |  | 
12 | Nc1nnc(-c2cccc(Cl)c2Cl)c(N)n1 [LAMOTRIGINE] | 4.6 mL |  | 0.88 | 0.51 | 1800 nM | 1.1 |  |  |  | 0.86 |  | 2.02 | 
13 | C[C@H]1COc2c(N3CCN(C)CC3)c(F)cc3c(=O)c(C(=O)O)cn1c23.C[C@H]1COc2c(N3CCN(C)CC3)c(F)cc3c(=O)c(C(=O)O)cn1c23.O [LEVOFLOXACIN] | 1.7 mL |  |  | 0.82 | 590 nM | 0.18 | 0.19 |  | 0.12 |  | 0.17 |  | 
14 | CN(C)C(=O)C(CCN1CCC(O)(c2ccc(Cl)cc2)CC1)(c1ccccc1)c1ccccc1 [LOPERAMIDE] | 370 mL |  |  | 0.06 | 54 nM |  | 0.037 |  | 0.007 |  | 0.15 |  | 
15 | CN(Cc1cnc2nc(N)nc(N)c2n1)c1ccc(C(=O)N[C@@H](CCC(=O)O)C(=O)O)cc1 [METHOTREXATE] | 0.68 mL | 0.004 | 0.006 | 1 | 2900 nM | 0.062 |  |  |  | 0.007 |  |  | 
16 | COCCc1ccc(OCC(O)CNC(C)C)cc1 (stereo not given) [METOPROLOL] |  |  |  | 0.9 | 750 nM |  |  |  |  |  |  |  | 
17 | CN1CC[C@]23c4c5ccc(O[C@@H]6O[C@H](C(=O)O)[C@@H](O)[C@H](O)[C@H]6O)c4O[C@H]2[C@@H](O)C=C[C@H]3[C@H]1C5 [MORPHINE 3-GLUCURONIDE] | 0.6 mL |  |  | 1 | 2700 nM | 0.081 | 0.049 |  | 0.011 |  | 0.007 |  | 
18 | CN1CC[C@]23c4c5ccc(O)c4O[C@H]2[C@@H](O[C@@H]2O[C@H](C(=O)O)[C@@H](O)[C@H](O)[C@H]2O)C=C[C@H]3[C@H]1C5 [MORPHINE GLUCURONIDE] | 0.99 mL |  |  | 0.98 | 2100 nM | 0.1 | 0.017 |  | 0.008 |  | 0.008 |  | 
19 | CO[C@@]1(NC(=O)C(C(=O)O)c2ccc(O)cc2)C(=O)N2C(C(=O)O)=C(CSc3nnnn3C)CO[C@@H]21 (stereo not given in full) [MOXALACTAM] | 0.57 mL | 0.003 | 0.019 | 0.32 | 3800 nM | 0.41 |  |  |  | 0.02 |  |  | 

Row | Structure (SMILES) | Vdu (Brain) | Kp at 4 h (in vivo [1]; brain) | Kp uu at 4 h (in vivo [2]; brain) | fraction unbound at 4 h (in vitro) | Cp(f) (Plasma [3]) | Kp uu (clinical) | Kp uu at 4 h (in vivo [4]; CSF and plasma) | BPR [5] | Kp uu at 4 h (in vivo [2]; brain and plasma) | Kp uu at 4 h (in vivo [4]; csf) | Kp at 4 h (in vivo [1]; brain and plasma) | BPR ([5]; Sprague-Dawley, 2 (umol/kg)/hr) | Fu (Plasma [6])
20 | CC(C)(C)NCC(O)COc1cccc2c1CC(O)C(O)C2 (stereo not given) [NADOLOL] |  |  |  | 0.86 | 780 nM |  |  |  |  |  |  |  | 
21 | O=C1CN(/N=C/c2ccc([N+](=O)[O-])o2)C(=O)N1 [NITROFURANTOIN] | 1.6 mL | 0.008 | 0.011 | 0.48 | 710 nM |  |  |  |  | 0.0099 |  |  | 
22 | CCn1cc(C(=O)O)c(=O)c2cc(F)c(N3CCNCC3)cc21 [NORFLOXACIN] | 2.9 mL | 0.07 | 0.028 | 0.87 | 700 nM | 0.11 |  |  |  | 0.018 |  |  | 
23 | C=CCOc1ccccc1OCC(O)CNC(C)C (stereo not given) [OXPRENOLOL] | 11.8 mL | 1.06 | 0.2 | 0.45 | 210 nM |  |  |  |  | 0.1 |  |  | 
24 | COc1ccc2c3c1O[C@H]1C(=O)CC[C@@]4(O)[C@@H](C2)N(C)CC[C@]314 [OXYCODONE] |  |  |  | 0.87 | 330 nM |  |  |  |  |  |  |  | 
25 | CN1CC[C@]23c4c5ccc(O)c4O[C@H]2C(=O)CC[C@@]3(O)[C@H]1C5 [OXYMORPHONE] | 4 mL |  |  | 0.73 | 240 nM |  | 0.91 |  | 0.79 |  | 2.29 |  | 
26 | CCC(C(N)=O)(C(N)=O)c1ccccc1 [PHENYLETHYLMALONAMIDE] | 0.9 mL |  |  | 0.55 | 4300 nM |  | 1.4 |  | 1.25 |  | 0.64 |  | 
27 | CC(C)NCC(O)COc1cccc2[nH]ccc12 (stereo not given) [PINDOLOL] |  |  |  | 0.43 | 160 nM | 0.52 | 0.11 |  | 0.5 |  | 1.56 |  | 
28 | CC(C)NCC(O)COc1cccc2ccccc12 (stereo not given) [PROPRANOLOL] | 118 mL |  |  | 0.09 | 51 nM | 0.42 | 0.49 |  | 0.61 |  | 6.59 |  | 
29 | CO[C@H]1/C=C/O[C@@]2(C)Oc3c(C)c(O)c4c(O)c(c(/C=N/N5CCN(C)CC5)c(O)c4c3C2=O)NC(=O)/C(C)=C\C=C\[C@H](C)[C@H](O)[C@@H](C)[C@@H](O)[C@@H](C)[C@H](OC(C)=O)[C@@H]1C [RIFAMPIN] |  |  |  | 0.12 | 830 nM |  |  |  |  |  |  |  | 
30 | O=C(O)c1ccccc1O [SALICYLIC ACID] | 1 mL | 0.05 | 0.19 | 0.28 | 5600 nM | 0.19 |  |  |  | 0.16 |  |  | 
31 | O=C(O)c1cc(/N=N/c2ccc(S(=O)(=O)Nc3ccccn3)cc2)ccc1O [SULFASALAZINE] |  |  |  | 0.005 | 13 nM |  | 0.032 |  |  |  |  |  | 
32 | Nc1c2c(nc3ccccc13)CCCC2 [TACRINE] | 22 mL | 9.56 | 0.78 | 0.55 | 120 nM | 0.74 |  |  |  | 0.67 |  |  | 
33 | CCCC(C)C1(CC)C(=O)NC(=S)NC1=O (stereo not given) [THIOPENTAL] |  |  |  | 0.19 | 550 nM |  |  |  |  |  |  |  | 
34 | CSc1ccc2c(c1)N(CCC1CCCCN1C)c1ccccc1S2 (stereo not given) [THIORIDAZINE] | 3333 mL | 3.75 | 0.45 |  | 1.3 nM | 1.4 |  |  |  | 0.21 |  |  | 0.002
35 | CC1(C)O[C@@H]2[C@@H](CO[C@@]3(COS(N)(=O)=O)OC(C)(C)O[C@@H]23)O1 [TOPIRAMATE] | 3.2 mL |  |  | 0.79 | 3400 nM | 1 | 0.63 |  | 0.33 |  | 0.84 |  | 
36 | COc1cccc(C2(O)CCCCC2CN(C)C)c1 (stereo not given) [TRAMADOL] | 4.2 mL | 5.29 | 1.46 | 0.85 | 300 nM | 1.44 |  |  |  | 0.71 |  |  | 
37 | Cc1cn([C@H]2C[C@H](N=[N+]=[N-])[C@@H](CO)O2)c(=O)[nH]c1=O [ZIDOVUDINE] |  |  |  | 0.64 | 1200 nM |  |  |  |  |  |  |  | 
